Experimental data published in publication PMC7523975, “Alkaloids of Abuta panurensis Eichler: In silico and in vitro study of acetylcholinesterase inhibition, cytotoxic and immunomodulatory activities” (PLoS ONE, 2020).

Tests used:
[1] = target: T1, acetylcholinesterase (AChE, TcAChE) (Tetronarce californica, UniProt P04058); experiment: Ellman colorimetric assay with commercial enzyme, […] nm (positive control); type: biochemical
[2] = target: T1, acetylcholinesterase (AChE, TcAChE); experiment: Ellman colorimetric assay with commercial enzyme, […] nm; type: biochemical

T1 sequence (P04058 22-564): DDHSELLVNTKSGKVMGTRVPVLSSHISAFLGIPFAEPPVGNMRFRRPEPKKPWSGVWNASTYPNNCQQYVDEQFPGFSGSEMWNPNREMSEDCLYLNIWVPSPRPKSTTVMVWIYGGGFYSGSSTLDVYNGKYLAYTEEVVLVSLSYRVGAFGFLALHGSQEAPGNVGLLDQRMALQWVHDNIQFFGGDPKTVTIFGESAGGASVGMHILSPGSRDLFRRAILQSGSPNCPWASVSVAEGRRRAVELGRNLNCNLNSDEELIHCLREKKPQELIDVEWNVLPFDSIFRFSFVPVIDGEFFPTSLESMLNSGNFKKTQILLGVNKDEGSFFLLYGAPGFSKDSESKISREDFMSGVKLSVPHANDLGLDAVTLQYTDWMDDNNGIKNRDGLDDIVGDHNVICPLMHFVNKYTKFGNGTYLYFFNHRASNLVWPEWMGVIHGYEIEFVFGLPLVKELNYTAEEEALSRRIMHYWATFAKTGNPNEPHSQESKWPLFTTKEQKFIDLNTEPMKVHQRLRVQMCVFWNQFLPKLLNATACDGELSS

CN(C)C(=O)Oc1cccc([N+](C)(C)C)c1 [neostigmine]
IC50 [1]: 3.72 µM

CN(CCCCNC(=O)/C=C/c1ccccc1)CCCNC(=O)/C=C/c1ccccc1 [compound 1, 5-N-methylmaytenine]
IC50 [2]: 19.6 µM

COC1=CC2CCNC3CC4(C=CC(=O)C=C4)C(=C1OC)C23 (stereo not drawn) [compound 2, stepharine]
IC50 [2]: 61.2 µM
